According to patent US20060154990A1, “Use of MEK inhibitors in treating abnormal cell growth” (AGOURON PHARMACEUTICALS, INC., priority 2004, published 2006):
Values joined by “and” are separate entries in the source; they are usually repeats but may differ in a detail not shown here. Equal entries are not always repeated.

Experiments:
[1] = test system: MiaPaCa-2 pancreatic xenograft; experiment: Antitumor activity in MiaPaCa-2 tumor model; format: in vivo, mice; details: oral 25 mg/kg once a day for 14 days
[2] = test system: pERK in tumor biopsies; experiment: Immunohistochemical analysis of pERK in paired tumor biopsies; details: for pERK Post-Treatment: H-score
Text: The phosphorylation status of ERK can be assessed through antibody-based detection methods, utilizing phosphorylation site-specific antibodies. […] The biopsy tissues were paraffin-embedded following standard tissue processing. The antibody used for detection of pERK was the mouse monoclonal anti-MAP kinase (activated) antibody, manufactured by Sigma-Aldrich Co. (catalog number: M8159). This antibody is reacts specifically with the dually phosphorylated form of MAPK (both the ERK-1 and ERK-2 forms). Tissue sections prepared from the paraffin blocks were pretreated with Heat-induced Epitope Retrieval conditions (3 minutes at 120° C.) prior to the detection procedure. […] Staining intensity was grouped in categories from 0 to 3+, with 0 being little or no staining, and 3 being the most intense staining. […] For each biopsy specimen, 2 sections were analyzed and the average of these was taken for the pERK H-score. In addition to H-scores, the total % of positive cells was also recorded.

[3] = test system: Ki67 in tumor biopsies; experiment: Immunohistochemical analysis of Ki67 in paired tumor biopsies; format: in vivo, human
Experimental: The same biopsy specimens, as analyzed for pERK. staining described in Example 10, were also assessed for the amount of Ki67 detectable by immunohistochemistry. The Ki67 marker is considered an indicator of cell proliferation and thus reduction in Ki67 staining levels may be correlated with anti-tumor activity of therapeutic agents. Tissue sections from the paraffin-embedded biopsy tissues were pretreated with Heat-induced Epitope Retrieval (in this case, microwaving for 3 minutes) prior to the Ki67 detection procedure. The antibody used was the mouse monoclonal Ki67/MM1 manufactured by Novocastra Laboratories, Ltd. (catalog number: NCL-Ki67-MM1). […] Scoring of staining intensity was performed in same manner as for pERK assay, with H-scores generated for each section. For Ki67, only 1 section was assayed for each biopsy specimen.

[4] = Metabolites of [14C] Compound 1 in cryopreserved hepatocytes; format: in vitro ADME, dog; details: [C-14] Compound 1 10 μM, 180 mins
Experimental: (§1) Incubations were performed in hepatocytes for 3 hours and liver microsomes for 1.5 hours and were stopped with the addition of methanol. HPLC, in conjuction with ionspray 3D iontrap mass spectrometry, and simultaneous radioactive monitoring were used to detect and identify the resulting metabolites.
(§2) Metabolite identification of radiolabeled Compound 1 was performed after incubation with rat, dog, monkey and human cryopreserved hepatocytes and liver microsomes. […] Besides glucuronidation, metabolites derived from other clearance pathways are also observed. For instance, M 15 (acid cleavage product) accounts for 11% of the total radioactivity in the human chromatogram.

[5] = test system: BxPc-3 pancreatic xenograft; experiment: Antitumor activity in BxPc-3 tumor model; format: in vivo, mice; details: oral 25 mg/kg once a day for 14 days
[6] = Metabolites of [14C] Compound 1 in liver microsomes; format: in vitro ADME, human; details: [C-14] Compound 1 10 μM, 90 mins
Experimental: as §1
(§3) This acid cleavage product is further metabolized to form hydroxylated (M 11, 16% in rat) and hydroxylated, defluorinated products (M 17, 19% in rat).

[7] = as above; format: in vitro ADME, rat; details: [C-14] Compound 1 10 μM, 90 mins
Experimental: as §1, §3

[8] = Pilot food effect assessment of plasma pharmacokinetics; details: for AUC(0-24) Change % / Cmax Change %: fed versus fasted; for Cmax / Tmax / AUC(0-t): human, plasma, oral
Experimental: A pilot food effect evaluation was conducted on Day 1 of Cycle 1 (ClDl) and Day 1 of Cycle 2 (C1D2).

[9] = test system: ZR-75-1 (human tumor of unknown phenotype); experiment: Antitumor activity in ZR-75-1 tumor model; format: in vivo, mice; details: ZR-75-1 (unknown phenotype), oral 25 mg/kg once a day for 14 days
[10] = Metabolites of [14C] Compound 1 in cryopreserved hepatocytes; format: in vitro ADME, rat; details: [C-14] Compound 1 10 μM, 180 mins
Experimental: as §1, §2

[11] = Maximum tolerated dose and lethality in mice
[12] = 1 mg BID, melanoma, individual patients
[13] = 1 mg QD, breast, individual patient
[14] = 1 mg QD, melanoma, individual patients
[15] = 2 mg BID, colon, individual patient
[16] = 2 mg BID, lung, individual patient
[17] = 2 mg BID, melanoma, individual patients
[18] = 4 mg BID, lung, individual patient
[19] = 4 mg BID, melanoma, individual patient
[20] = 8 mg BID, breast, individual patient
[21] = 15 mg BID, breast, individual patient
[22] = 15 mg BID, melanoma, individual patient
[23] = 20 mg BID continuous, melanoma, individual patients
[24] = 20 mg BID, melanoma, individual patient
[25] = 30 mg BID, colon, individual patient
[26] = 30 mg BID, melanoma, individual patients

Compound: O=C(NOC[C@H](O)CO)c1ccc(F)c(F)c1Nc1ccc(I)cc1F [Compound 1, N-[(R)-2,3-dihydroxy-propoxy]-3,4-difluoro-2-(2-fluoro-4-iodo-phenylamino)-benzamide]
- CR (complete responder) [1]: 1/9
- PR (partial responder) [1]: 0/9
- T − C [1]: 16.8 days
- Tumor Free [1]: 0/9
- pERK % Reduction from Baseline [2, 12]: −65% and 0%
- pERK % Reduction from Baseline [2, 13]: −4%
- pERK % Reduction from Baseline [2, 14]: −93% and 0%
- pERK % Reduction from Baseline [2, 15]: 0%
- pERK % Reduction from Baseline [2, 16]: −95%
- pERK % Reduction from Baseline [2, 17]: −97% and −100%
- pERK % Reduction from Baseline [2, 18]: −100%
- pERK % Reduction from Baseline [2, 19]: −70%
- pERK % Reduction from Baseline [2, 20]: −93%
- pERK % Reduction from Baseline [2, 21]: −9%
- pERK % Reduction from Baseline [2, 22]: −100%
- pERK % Reduction from Baseline [2, 23]: −100% and −72% and −18%
- pERK % Reduction from Baseline [2, 24]: −100%
- pERK % Reduction from Baseline [2, 25]: −91%
- pERK % Reduction from Baseline [2, 26]: −4% and −87%
- pERK Post-Treatment [2, 12]: 45 and 40
- pERK Post-Treatment [2, 13]: 135
- pERK Post-Treatment [2, 14]: 3 and 78
- pERK Post-Treatment [2, 15]: 12
- pERK Post-Treatment [2, 16]: 8
- pERK Post-Treatment [2, 17]: 10 and 0
- pERK Post-Treatment [2, 18]: 0
- pERK Post-Treatment [2, 19]: 50
- pERK Post-Treatment [2, 20]: 5
- pERK Post-Treatment [2, 21]: 150
- pERK Post-Treatment [2, 22]: 0
- pERK Post-Treatment [2, 23]: 0 and 23 and 45
- pERK Post-Treatment [2, 24]: 1
- pERK Post-Treatment [2, 25]: 3
- pERK Post-Treatment [2, 26]: 70 and 15
- average Ki67 decline ([3]; baseline Ki67 scores above 20, 2 mg BID to 30 mg BID (N=13)): 49%
- average Ki67 decline ([3]; baseline Ki67 scores above 20, all dose groups (N=18)): 39%
- average Ki67 decline ([3]; tumor biopsies Day 15, 1 mg QD to 30 mg BID (N=22)): 31%
- average Ki67 decline ([3]; tumor biopsies Day 15, 2 mg BID to 30 mg BID (N=19)): 46%
- % ROI Dog [4]: 50.45%
- CR (complete responder) [5]: 2/10
- PR (partial responder) [5]: 8/10
- T − C [5]: 20.6 days
- Tumor Free [5]: 0/10
- % ROI Human [6]: 77.36%
- % ROI Rat [7]: 52.30%
- AUC(0-24) Change % ([8]; 1 mg BID, individual patients): −76% and 390%
- Cmax Change % ([8]; 1 mg BID, individual patients): −82% and 161%
- AUC(0-24) Fasted ([8]; 1 mg BID, individual patients): 998 ng·h/mL and 133 ng·h/mL
- AUC(0-24) Fed ([8]; 1 mg BID, individual patients): 244 ng·h/mL and 652 ng·h/mL
- Cmax Fasted ([8]; 1 mg BID, individual patients): 181 ng/mL and 21.6 ng/mL
- Cmax Fed ([8]; 1 mg BID, individual patients): 56.4 ng/mL
- AUC(0-24) Change % ([8]; 2 mg BID, individual patients): −38% and 138% and 74% and 1%
- Cmax Change % ([8]; 2 mg BID, individual patients): −62% and −29% and −28% and −36%
- AUC(0-24) Fasted ([8]; 2 mg BID, individual patients): 874 ng·h/mL and 526 ng·h/mL and 454 ng·h/mL
- AUC(0-24) Fed ([8]; 2 mg BID, individual patients): 369 ng·h/mL and 2080 ng·h/mL and 914 ng·h/mL and 456 ng·h/mL
- Cmax Fasted ([8]; 2 mg BID, individual patients): 77.5 ng/mL and 173 ng/mL and 71.9 ng/mL and 88.7 ng/mL
- Cmax Fed ([8]; 2 mg BID, individual patients): 29.5 ng/mL and 122 ng/mL and 52.1 ng/mL and 56.7 ng/mL
- Tmax Fed ([8]; 2 mg BID, individual patients): 8 h
- AUC(0-24) Change % ([8]; 4 mg BID, individual patients): −7% and −20% and −18% (2×)
- Cmax Change % ([8]; 4 mg BID, individual patients): −25% and −49% (2×) and −57%
- AUC(0-24) Fasted ([8]; 4 mg BID, individual patients): 1060 ng·h/mL and 721 ng·h/mL and 919 ng·h/mL
- AUC(0-24) Fed ([8]; 4 mg BID, individual patients): 849 ng·h/mL and 590 ng·h/mL and 754 ng·h/mL
- Cmax Fasted ([8]; 4 mg BID, individual patients): 65.5 ng/mL and 157 ng/mL and 114 ng/mL
- Cmax Fed ([8]; 4 mg BID, individual patients): 80.7 ng/mL and 58.4 ng/mL and 68.0 ng/mL
- Tmax Fasted ([8]; 4 mg BID, individual patients): 1 h
- AUC(0-24) Change % ([8]; 15 mg BID, individual patients): −14% and −67% and −27%
- Cmax Change % ([8]; 15 mg BID, individual patients): −59% and −80% and −50%
- AUC(0-24) Fasted ([8]; 15 mg BID, individual patients): 2880 ng·h/mL and 4880 ng·h/mL
- AUC(0-24) Fed ([8]; 15 mg BID, individual patients): 4700 ng·h/mL and 957 ng·h/mL and 3580 ng·h/mL
- Cmax Fasted ([8]; 15 mg BID, individual patients): 1120 ng/mL and 464 ng/mL and 641 ng/mL
- Cmax Fed ([8]; 15 mg BID, individual patients): 459 ng/mL and 92.0 ng/mL and 319 ng/mL
- AUC(0-24) Change % ([8]; 20 mg BID, individual patients): −6% and −2% and −15%
- Cmax Change % ([8]; 20 mg BID, individual patients): −57% and −32% and −34%
- AUC(0-24) Fasted ([8]; 20 mg BID, individual patients): 4340 ng·h/mL and 6820 ng·h/mL and 3360 ng·h/mL
- AUC(0-24) Fed ([8]; 20 mg BID, individual patients): 4060 ng·h/mL and 6700 ng·h/mL and 2860 ng·h/mL
- Cmax Fasted ([8]; 20 mg BID, individual patients): 1180 ng/mL and 596 ng/mL
- Cmax Fed ([8]; 20 mg BID, individual patients): 358 ng/mL and 797 ng/mL and 393 ng/mL
- coefficient of variation (CV) for AUC(0-24) ([8]; fed state): 78%
- Cmax ([8]; 1 mg, Cmax Fed, 1 mg BID, individual patients): 33.4 ng/mL
- Tmax ([8]; 1 mg, Tmax Fasted, 1 mg BID, individual patients): 1 h
- Tmax ([8]; 1 mg, Tmax Fed, 1 mg BID, individual patients): 3 h
- AUC(0-t) ([8]; 2 mg, AUC(0-24) Fasted, 2 mg BID, individual patients): 594 ng·h/mL
- Tmax ([8]; 2 mg, Tmax Fasted, 2 mg BID, individual patients): 1 h
- Tmax ([8]; 2 mg, Tmax Fed, 2 mg BID, individual patients): 6 h
- AUC(0-t) ([8]; 4 mg, AUC(0-24) Fasted, 4 mg BID, individual patients): 705 ng·h/mL
- AUC(0-t) ([8]; 4 mg, AUC(0-24) Fed, 4 mg BID, individual patients): 654 ng·h/mL
- Cmax ([8]; 4 mg, Cmax Fed, 4 mg BID, individual patients): 49.1 ng/mL
- Tmax ([8]; 4 mg, Tmax Fed, 4 mg BID, individual patients): 6 h
- AUC(0-t) ([8]; 15 mg, AUC(0-24) Fasted, 15 mg BID, individual patients): 5460 ng·h/mL
- Tmax ([8]; 15 mg, Tmax Fasted, 15 mg BID, individual patients): 1 h
- Tmax ([8]; 15 mg, Tmax Fed, 15 mg BID, individual patients): 4 h
- Cmax ([8]; 20 mg, Cmax Fasted, 20 mg BID, individual patients): 839 ng/mL
- Tmax ([8]; 20 mg, Tmax Fasted, 20 mg BID, individual patients): 1 h
- Tmax ([8]; 20 mg, Tmax Fed, 20 mg BID, individual patients): 4 h
- delay of peak plasma levels ([8]; taken with a high fat meal): 2 to 7 h
- CR (complete responder) [9]: 7/8
- PR (partial responder) [9]: 1/8
- T − C [9]: 24.2 days
- Tumor Free [9]: 0/8
- % ROI Rat [10]: 72.06%
- MTD at 14 days ([11]; BALB/c and SCID, mouse, in vivo, po): 25 mg/kg/day and 25 mg/kg
- deaths or weight loss ([11]; mice, 25 mg/kg oral daily for 14 days): no deaths or weight loss
- LD10 ([11]; mice, IV regimen): 100 mg/kg
- Deaths ([11]; mice, oral daily dosing of 50 mg/kg, sixth day of treatment): 5 out of 8
